From PubChem BioAssay AID1745844 (Carcinogenic Potency Database (CPDB), 2022)
Calls of active or inactive are those of the source. How the calls were made is not given here.

Test system: rodent lifetime carcinogenesis bioassay, tumor incidence TD50
Experiment: chronic cancer bioassays in animals – CPDB, compiled studies (AID 1745844)

CCNC(=S)NCC
carcinogen call (mouse, strain B6C3F1, females, in feed, site: any site (literature study), lesion: several types, types named in the paper, dosed 103 weeks, study length 104 weeks): negative (inactive)
TD50 (mouse, strain B6C3F1, females, in feed, site: liver, lesion: hepatocellular adenoma + hepatocellular carcinoma + neoplastic nodule, dosed 103 weeks, study length 104 weeks): 687 mg/kg/day
carcinogen call (mouse, strain B6C3F1, males, in feed, site: any site (literature study), lesion: several types, types named in the paper, dosed 103 weeks, study length 104 weeks): negative (inactive)
TD50 (rat, strain F344/DuCrj, males, in feed, site: thyroid gland, lesion: follicular-cell carcinoma, dosed 52 weeks, study length 52 weeks): 28.1 mg/kg/day
TD50 (rat, strain Fischer 344, females, in feed, site: any site (literature study), lesion: several types, types named in the paper, dosed 104 weeks, study length 104 weeks): 21.5 mg/kg/day
TD50 (rat, strain Fischer 344, females, in feed, site: thyroid gland, lesion: follicular-cell adenoma + follicular-cell carcinoma, dosed 104 weeks, study length 104 weeks): 23.8 mg/kg/day
TD50 (rat, strain Fischer 344, females, in feed, site: thyroid gland, lesion: follicular-cell carcinoma, dosed 104 weeks, study length 104 weeks): 57.9 mg/kg/day
TD50 (rat, strain Fischer 344, males, in feed, site: any site (literature study), lesion: several types, types named in the paper, dosed 103 weeks, study length 104 weeks): 12.9 mg/kg/day
TD50 (rat, strain Fischer 344, males, in feed, site: thyroid gland, lesion: follicular-cell adenoma + follicular-cell carcinoma, dosed 103 weeks, study length 104 weeks): 24.3 mg/kg/day
TD50 (rat, strain Fischer 344, males, in feed, site: thyroid gland, lesion: follicular-cell carcinoma, dosed 103 weeks, study length 104 weeks): 33.6 mg/kg/day

Brc1cc(Br)c2cccnc2c1
carcinogen call (rat, strain Fischer 344, females, in feed, site: liver, lesion: hyperplastic nodule, dosed 104 weeks, study length 104 weeks): negative (inactive)
TD50 (rat, strain Fischer 344, males, in feed, site: liver, lesion: hyperplastic nodule, dosed 104 weeks, study length 104 weeks): 754 mg/kg/day (inactive)
TD50 (rat, strain Fischer 344, males, in feed, site: testis, lesion: interstitial-cell tumor, dosed 104 weeks, study length 104 weeks): 69.4 mg/kg/day (inactive)

NNC(N)=S
carcinogen call (mouse, strain Swiss albino, females, in drinking water, site: liver, lesion: hepatoma, dosed 123 weeks, study length 124 weeks): negative (inactive)
carcinogen call (mouse, strain Swiss albino, females, in drinking water, site: lung, lesion: one or several types, types not named, dosed 123 weeks, study length 124 weeks): negative (inactive)
carcinogen call (mouse, strain Swiss albino, males, in drinking water, site: liver, lesion: hepatoma, dosed 115 weeks, study length 121 weeks): negative (inactive)
carcinogen call (mouse, strain Swiss albino, males, in drinking water, site: lung, lesion: one or several types, types not named, dosed 115 weeks, study length 121 weeks): negative (inactive)
TD50 (rat, strain Charles River CD (Sprague-Dawley), females, in feed, site: mammary gland, lesion: one or several types, types not named, dosed 78 weeks, study length 104 weeks): 3.07 mg/kg/day

CC(=O)C1C(=O)C=C(C)OC1=O (stereo not given)
carcinogen call (mouse, strain B6AKF1, females, oral dosing, site: any site (literature study), lesion: several types, types named in the paper, dosed 76 weeks, study length 76 weeks): negative (inactive)
carcinogen call (mouse, strain B6AKF1, females, oral dosing, site: liver, lesion: hepatoma, dosed 76 weeks, study length 76 weeks): negative (inactive)
carcinogen call (mouse, strain B6AKF1, females, oral dosing, site: lung, lesion: adenoma, dosed 76 weeks, study length 76 weeks): negative (inactive)
carcinogen call (mouse, strain B6AKF1, males, oral dosing, site: any site (literature study), lesion: several types, types named in the paper, dosed 76 weeks, study length 76 weeks): negative (inactive)
carcinogen call (mouse, strain B6AKF1, males, oral dosing, site: liver, lesion: hepatoma, dosed 76 weeks, study length 76 weeks): negative (inactive)
carcinogen call (mouse, strain B6AKF1, males, oral dosing, site: lung, lesion: adenoma, dosed 76 weeks, study length 76 weeks): negative (inactive)
carcinogen call (mouse, strain B6C3F1, females, oral dosing, site: any site (literature study), lesion: one or several types, types not named, dosed 76 weeks, study length 76 weeks): negative (inactive)
carcinogen call (mouse, strain B6C3F1, females, oral dosing, site: liver, lesion: hepatoma, dosed 76 weeks, study length 76 weeks): negative (inactive)
carcinogen call (mouse, strain B6C3F1, females, oral dosing, site: lung, lesion: several types, types named in the paper, dosed 76 weeks, study length 76 weeks): negative (inactive)
TD50 (mouse, strain B6C3F1, males, oral dosing, site: any site (literature study), lesion: several types, types named in the paper, dosed 76 weeks, study length 76 weeks): 202 mg/kg/day (inactive)
carcinogen call (mouse, strain B6C3F1, males, oral dosing, site: liver, lesion: hepatoma, dosed 76 weeks, study length 76 weeks): negative (inactive)
carcinogen call (mouse, strain B6C3F1, males, oral dosing, site: lung, lesion: several types, types named in the paper, dosed 76 weeks, study length 76 weeks): negative (inactive)

ClC(Cl)=C(Cl)C(Cl)=C(Cl)Cl
TD50 (rat, strain Sprague-Dawley Spartan, females, in feed, site: any site (literature study), lesion: several types, types named in the paper, dosed 104 weeks, study length 104 weeks): 9.84 mg/kg/day
TD50 (rat, strain Sprague-Dawley Spartan, females, in feed, site: kidney, lesion: several types, types named in the paper, dosed 104 weeks, study length 104 weeks): 94.4 mg/kg/day
carcinogen call (rat, strain Sprague-Dawley Spartan, females, in feed, site: liver, lesion: hepatocellular tumor, malignant, dosed 104 weeks, study length 104 weeks): negative (inactive)
TD50 (rat, strain Sprague-Dawley Spartan, males, in feed, site: kidney, lesion: several types, types named in the paper, dosed 95 weeks, study length 95 weeks): 50.5 mg/kg/day
carcinogen call (rat, strain Sprague-Dawley Spartan, males, in feed, site: liver, lesion: hepatocellular carcinoma, dosed 95 weeks, study length 95 weeks): negative (inactive)
